Results as given in US8106015B2, “Method for enhancing immune response with peptide” (Juridical Foundation The Chemo-Sero-Therapeutic Research …, priority 2007, dated 2012).
“And” between values parts separate entries of the source, which are not always exact repeats. Identical values can stand only once.

Columns and labels:
Type in all cases: in vivo, C57BL/6 mice
anti-Aβ IgG antibody [1] = experiment: Example 6: anti-Aβ IgG antibody titer, Aβ peptide sequences with insertion of cysteine; settings: Day 7 from the final 4th immunization; for Antibody titer, Mean: group mean of 4 mice; for Antibody titer: individual animals (No. 1-4), 100 μg/mouse, 2-week intervals, no adjuvant
anti-Aβ IgG antibody [2] = experiment: Example 7: anti-Aβ IgG antibody titer, Aβ peptide with cysteine plus exogenous amino acid sequence; settings: Day 7 from the final 4th immunization; for Antibody titer, Mean: group mean of 4 mice; for Antibody titer: individual animals (No. 1-4), 100 μg/mouse, 2-week intervals, no adjuvant
anti-Aβ IgG antibody [3] = experiment: Example 3: anti-Aβ IgG antibody titer, Aβ peptides with addition of cysteine of 26-40 amino acids in length; settings: Day 7 from final 3rd immunization; for Antibody titer, Mean: group mean of 4 mice; for Antibody titer: individual animals (No. 1-4), 100 μg/mouse, 3 times at 2-week intervals, no adjuvant
anti-Aβ IgG antibody [4] = experiment: Example 5: anti-Aβ IgG antibody titer, cysteine at the C-terminal, the N-terminal and both terminals; settings: Day 7 from the final 4th immunization; for Antibody titer, Mean: group mean of 4 mice; for Antibody titer: individual animals (No. 1-4), 100 μg/mouse, 2-week intervals, no adjuvant
anti-Aβ IgG antibody [5] = experiment: Example 10: anti-Aβ IgG antibody titer, Aβ peptide with/without cysteine, with and without adjuvant; settings: Day 7 from final 3rd immunization
anti-Aβ IgG antibody [6] = experiment: Example 1: anti-Aβ IgG antibody titer in murine serum after immunization with Aβ peptides with and without addition of cysteine
anti-Aβ IgG antibody [7] = experiment: Example 4: anti-Aβ IgG antibody titer, Aβ peptides with 0, 1 or 2 molecules of cysteine added
anti-Aβ IgG antibody [8] = experiment: Example 2: anti-Aβ IgG antibody titer, Aβ peptide with cysteine vs carrier-linked Aβ peptide with/without adjuvant; settings: Day 7 from final 3rd immunization
[9] = group mean of 4 mice, serum, 100 μg/mouse intradermally or subcutaneously, 2-week intervals, no adjuvant

DAEFRHDSGYEVHHQKLVCFFAEDVGSNK [28AA18Cys, 28-amino acid Aβ peptide with insertion of cysteine between 18th-19th amino acid residues]
Antibody inducing ability (anti-Aβ IgG antibody [1]): antibody inducing ability was found
Antibody inducing ability as compared to the group administered with 28AACys (anti-Aβ IgG antibody [1]): higher antibody inducing ability
Antibody titer, Mean (anti-Aβ IgG antibody [1]): 611899.2 ng/mL
Antibody titer (anti-Aβ IgG antibody [1]): 2163676 ng/mL and 92083 ng/mL and 54037 ng/mL and 137801 ng/mL

DAEFRHDSGYCEVHHQKLVFFAEDVGSNK [28AA10Cys, 28-amino acid Aβ peptide with insertion of cysteine after residue 10]
Antibody titer, Mean (anti-Aβ IgG antibody [1]): 17.7 ng/mL
Antibody titer (anti-Aβ IgG antibody [1]): 26 ng/mL and 19 ng/mL and 18 ng/mL and 8 ng/mL

DAEFRHDSGYEVHHQKLVFFAEDVGSNKCGAIIG [33AA28Cys, Aβ peptide with insertion of cysteine between the 28th and 29th amino acid residues]
Antibody inducing ability (anti-Aβ IgG antibody [1]): antibody inducing ability was found
Antibody titer, Mean (anti-Aβ IgG antibody [1]): 4105.0 ng/mL
Antibody titer (anti-Aβ IgG antibody [1]): 245 ng/mL and 1932 ng/mL and 29 ng/mL and 14214 ng/mL

DAEFRHDCSGYEVHHQKLVFFAEDVGSNK [28AA7Cys, 28-amino acid Aβ peptide with insertion of cysteine after residue 7]
Antibody titer, Mean (anti-Aβ IgG antibody [1]): 23.0 ng/mL
Antibody titer (anti-Aβ IgG antibody [1]): 21 ng/mL and 24 ng/mL and 17 ng/mL and 30 ng/mL

DAEFRHDSGYEVHHQKLVFFAEDVGSNKCEIFEFTTD [Peptide with addition of cysteine at the C-terminal plus an exogenous peptide]
Antibody inducing ability (anti-Aβ IgG antibody [2]): antibody inducing ability was found
Antibody titer, Mean (anti-Aβ IgG antibody [2]): 21099.2 ng/mL
Antibody titer (anti-Aβ IgG antibody [2]): 8196 ng/mL and 28782 ng/mL and 2162 ng/mL and 45257 ng/mL

DAEFRHDSGYEVHHQKLVFFAEDVGSNKCTTD [28AACysTTD, Peptide with addition of cysteine at the C-terminal plus an exogenous peptide]
Antibody inducing ability (anti-Aβ IgG antibody [2]): antibody inducing ability was found
Antibody titer, Mean (anti-Aβ IgG antibody [2]): 28279.3 ng/mL
Antibody titer (anti-Aβ IgG antibody [2]): 46 ng/mL and 106899 ng/mL and 4316 ng/mL and 1855 ng/mL

DAEFRHDSGYEVHHQKLVFFAEDVGSNC [27AACys, 27-amino acid Aβ peptide with addition of cysteine at the C-terminal]
Antibody titer, Mean (anti-Aβ IgG antibody [3]): 19.0 ng/mL
Antibody titer (anti-Aβ IgG antibody [3]): 15 ng/mL and 19 ng/mL (2×) and 24 ng/mL

CDAEFRHDSGYEVHHQKLVFFAEDVGSNKC [Cys28AACys, Peptide with addition of each 1 molecule of cysteine at the C-terminal and the N-terminal]
Antibody titer, Mean (anti-Aβ IgG antibody [4]): 13051.6 ng/mL
Antibody titer (anti-Aβ IgG antibody [4]): 772 ng/mL and 49849 ng/mL and 1537 ng/mL and 48 ng/mL

CDAEFRHDSGYEVHHQKLVFFAEDVGSNK [Cys28AA, Peptide with addition of 1 molecule of cysteine at the N-terminal]
Antibody titer, Mean (anti-Aβ IgG antibody [4]): 5891.8 ng/mL
Antibody titer (anti-Aβ IgG antibody [4]; listed as Cys2BAA): 7708 ng/mL and 423 ng/mL and 15328 ng/mL and 108 ng/mL

DAEFRHDSGYEVHHQKLVFFAEDVGSNKC [28AACys, 28-amino acid Aβ peptide with addition of cysteine]
Antibody inducing ability against Aβ (anti-Aβ IgG antibody [3]): higher antibody titer
Antibody titer, Mean (anti-Aβ IgG antibody [3]): 51916.1 ng/mL
Antibody titer (anti-Aβ IgG antibody [3]): 3120 ng/mL and 2191 ng/mL and 115618 ng/mL and 86736 ng/mL
Antibody titer, Mean (anti-Aβ IgG antibody [5]; group mean of 4 mice): 19243.7 ng/mL
Antibody titer (anti-Aβ IgG antibody [5]; individual animals (No. 1-4), 100 μg Aβ peptide per animal, 3 times at 2-week intervals): 8847 ng/mL and 9458 ng/mL and 10446 ng/mL and 48224 ng/mL
Antibody inducing ability (anti-Aβ IgG antibody [1]): antibody inducing ability was found
Antibody titer, Mean (anti-Aβ IgG antibody [1]): 18946.0 ng/mL
Antibody titer (anti-Aβ IgG antibody [1]): 20883 ng/mL and 10503 ng/mL and 38907 ng/mL and 5491 ng/mL
Increase in the antibody titer with addition of cysteine (anti-Aβ IgG antibody [6]; compared to the same Aβ peptide fragment without addition of cysteine): about 39 fold
Antibody titer, Day 7 from 2nd administration, Mean (anti-Aβ IgG antibody [6]; [9]): 157767.25 ng/mL
Antibody titer, Day 7 from 3rd administration, Mean (anti-Aβ IgG antibody [6]; [9]): 26043.00 ng/mL
Antibody titer, Day 7 from 2nd administration (anti-Aβ IgG antibody [6]; individual animals (No. 1-4), serum, 100 μg/mouse intradermally or subcutaneously, 2-week intervals, no adjuvant): 74096.0 ng/mL and 30542.0 ng/mL and 389239.0 ng/mL and 137192.0 ng/mL
Antibody titer, Day 7 from 3rd administration (anti-Aβ IgG antibody [6]; individual animals (No. 1-4), serum, 100 μg/mouse intradermally or subcutaneously, 3 times at 2-week intervals, no adjuvant): 20265.0 ng/mL and 2337.0 ng/mL and 69198.0 ng/mL and 12372.0 ng/mL
Antibody titer, Mean (anti-Aβ IgG antibody [4]): 155867.0 ng/mL
Antibody titer (anti-Aβ IgG antibody [4]): 290461 ng/mL and 94 ng/mL and 139927 ng/mL and 192986 ng/mL
Antibody inducing ability (anti-Aβ IgG antibody [2]): antibody inducing ability was found
Antibody titer, Mean (anti-Aβ IgG antibody [2]): 5070.2 ng/mL
Antibody titer (anti-Aβ IgG antibody [2]): 211 ng/mL and 365 ng/mL and 19578 ng/mL and 127 ng/mL
Antibody inducing ability (anti-Aβ IgG antibody [7]; 1 vs 2 molecules of cysteine at the C-terminal): almost the same antibody inducing ability
Antibody titer, Mean (anti-Aβ IgG antibody [7]; group mean of 4 mice, Day 7 from the final 4th immunization): 5070.2 ng/mL
Antibody titer (anti-Aβ IgG antibody [7]; individual animals (No. 1-4), Day 7 from the final 4th immunization, 100 μg/mouse, 2-week intervals, no adjuvant): 211 ng/mL and 365 ng/mL and 19578 ng/mL and 127 ng/mL
Antibody titer, Mean (anti-Aβ IgG antibody [8]; group mean of 5 mice): 4237.48 ng/mL
Antibody titer (anti-Aβ IgG antibody [8]; individual animals (No. 1-5), primary 100 μg, 2nd and 3rd 50 μg per animal, 2-week intervals): 1714.4 ng/mL and 5949.1 ng/mL and 10122.3 ng/mL and 716.6 ng/mL and 2685.0 ng/mL

DAEFRHDSGYEVHHQKLVFFAEDVGSC [26AACys, 26-amino acid Aβ peptide with addition of cysteine at the C-terminal]
Antibody titer, Mean (anti-Aβ IgG antibody [3]): 24.5 ng/mL
Antibody titer (anti-Aβ IgG antibody [3]): 39 ng/mL and 19 ng/mL (2×) and 21 ng/mL

DAEFRHDSGYEVHHQKLVFFAEDVGSNKCGAIIGLM [35AA28Cys, Aβ peptide with insertion of cysteine between the 28th and 29th amino acid residues]
Antibody inducing ability (anti-Aβ IgG antibody [1]): antibody inducing ability was found
Antibody titer, Mean (anti-Aβ IgG antibody [1]): 6897.5 ng/mL
Antibody titer (anti-Aβ IgG antibody [1]): 1753 ng/mL and 17265 ng/mL and 2103 ng/mL and 6469 ng/mL

DAEFRHDSGYEVHHQKLVFFAEDVGCSNK [28AA25Cys, Aβ peptide with insertion of cysteine between the 25th and 26th amino acid residues]
Antibody inducing ability (anti-Aβ IgG antibody [1]): antibody inducing ability was found
Antibody titer, Mean (anti-Aβ IgG antibody [1]): 6860.8 ng/mL
Antibody titer (anti-Aβ IgG antibody [1]): 14972 ng/mL and 4721 ng/mL and 4483 ng/mL and 3267 ng/mL
